Source: patent US8003660B2, “Modulators of muscarinic receptors” (Vertex Pharmaceuticals Incorporated, priority 2006, dated 2011)

Tests used:
Type in all cases: cell-based
[1] = target: T1, M1 muscarinic receptor (Homo sapiens, UniProt P11229); test: Functional mobilization of intracellular calcium (FLIPR) in CHO cells expressing M1; conditions: for EC50: CHO cells expressing M1, FLIPR calcium; for Emax: CHO, 100% = maximum response obtained with the Carbachol control, read-out: M1 Efficacy
T1 construct: expressed in transfected cells; host or cells: CHO (M1-CHO)
T1 sequence (P11229 1-460): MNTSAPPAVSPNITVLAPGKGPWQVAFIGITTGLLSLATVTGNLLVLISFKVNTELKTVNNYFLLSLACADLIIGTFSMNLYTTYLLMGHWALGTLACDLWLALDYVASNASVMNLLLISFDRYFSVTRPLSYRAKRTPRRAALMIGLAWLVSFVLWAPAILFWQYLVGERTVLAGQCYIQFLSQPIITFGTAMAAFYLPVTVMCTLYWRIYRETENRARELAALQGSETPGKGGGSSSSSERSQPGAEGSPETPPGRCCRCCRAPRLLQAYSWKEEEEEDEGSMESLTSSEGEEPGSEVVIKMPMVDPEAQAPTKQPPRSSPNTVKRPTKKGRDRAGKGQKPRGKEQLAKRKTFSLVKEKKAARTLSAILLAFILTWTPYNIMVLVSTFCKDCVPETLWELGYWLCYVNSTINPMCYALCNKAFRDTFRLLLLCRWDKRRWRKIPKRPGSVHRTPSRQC
Method: (§1) Functional Mobilization of Intracellular Calcium to Determine Muscarinic Receptor Activity:
(§2) CHO cells expressing muscarinic receptors (M1 to M5) are grown as monolayers in tissue culture flasks at 37° C. in a humidified atmosphere containing 5% CO2 and passaged every 3-5 days. The growth media is Dulbecco's modified eagles medium (DMEM, Gibco Cat# 12430-054), containing 25 mM Hepes and supplemented with Fetal Bovine Serum (Hyclone, cat# SH30071.03), 0.1 mM of MEM non-essential amino acids (GIBCO, Cat# 11140-050), 1 mM MEM Sodium Pyruvate (GIBCO Cat# 11360-070) and 100 units/ml of Penicillin G and 100 μg/ml of Streptomycin (GIBCO Cat# 15140-122). The recombinant muscarinic receptor cell lines are grown under antibiotic pressure with media containing 25 μg/ml zeocin and 500 μg/ml G418 (M1-CHO), 4 μg/ml puromycin, 50 μg/ml zeocin and 2.5 μg/ml blasticidin (M2 and M4-CHO) or 50 μg/ml zeocin and 4 μg/ml puromycin (M3 and M5-CHO).
(§3) Cells are harvested at 80-90% confluence using Versene (GIBCO Cat# 15040-066), collected by centrifugation and seeded 18-24 hrs prior to running the calcium assay at a density of 5,000-10,000 cells/well in […], clear-bottomed 384-well plates (BD Biocoat, poly-D-lysine, Cat#356663). The day of the experiment, the cells are washed with a plate washer (Bioteck Instruments, ELX 405) using bath 1 buffer (140 mM NaCl, 4,5 mM KCl, 2 mM CaCl2, 1 mM MgCl2, 10 mM Hepes-Na, 10 mM Glucose, pH 7.4, with NaOH) containing 1 mM Probenecid. Next, the calcium dye Fluo-3 (25 μl/well of Fluo-3 AM at 4 μM, Molecular Probes F-1241, in Bath 1 buffer containing 1 mM Probenecid) is added to the 25 μl of Bath 1 remaining in each well after the plate wash and the dye is loaded at 37° C. in the tissue culture incubator for 60-90 min. The fluorescent dye is removed using the plate washer with Bath 1 containing 1 mM Probenecid, leaving 25 μl/well of this solution after the wash. Alternatively, cells can be loaded with the calcium indicator from Molecular Devices (Calcium 3 Assay Reagents, Cat #R7181) adding 5 μl of a 5× solution dye in Bath 1 containing 1 mM Probenecid (10 ml per dye flask cat#R7182 to generate a solution […]) to 20 μl of the same buffer. After loading for 60 min, the experiment can be run without having to remove the dye.
(§4) Compounds are prepared at a 2× fold concentration in a 96-well plate (round bottom, Costar Corning cat#3656), by reconstituting the pre-spotted compounds in bath 1 containing 1 mM probenecid. The final concentration DMSO is 0.5%, and the amount of DMSO is normalized across the assay plate. To determine an agonist action of the compounds on muscarinic receptors, the reconstituted compounds are added (25 μl compound/well) to the cell assay plate (containing 25 μl/well) using the multi-channel robotic system of the FLIPR 3 Instrument (Molecular Devices, Sunnyvale, Calif.). To determine a functional inhibitory action of the compounds on muscarinic receptors, the reconstituted compounds are added (25 μl compound/well) to the assay plate and pre-incubated for 15 min prior to adding 25 μl of Carbachol at 3× the EC80 for each muscarinic subtype. Alternatively, the compounds can be co-applied simultaneously with the agonist. In both assay modes, the fluorescence is recorded for 60 sec (excitation wavelength is […] and emission wavelength 540 nm) using the FLIPR 3 instrument.
(§5) The potency, efficacy and selectivity of the muscarinic compounds were evaluated by screening the compound activity across the whole family (M1 to M5 cells). Compounds were also screened for activity on other proteins such as other GPCRs and ion channels to determine selectivity on M4 receptors.

[2] = target: T2, M4 muscarinic receptor (Homo sapiens, UniProt P08173); test: Functional mobilization of intracellular calcium (FLIPR) in CHO cells expressing M4; conditions: for EC50: CHO cells expressing M4, FLIPR calcium; for Emax: CHO, 100% = maximum response obtained with the Carbachol control, read-out: M4 Efficacy
T2 construct: expressed in transfected cells; host or cells: CHO (M4-CHO)
T2 sequence (P08173 1-479): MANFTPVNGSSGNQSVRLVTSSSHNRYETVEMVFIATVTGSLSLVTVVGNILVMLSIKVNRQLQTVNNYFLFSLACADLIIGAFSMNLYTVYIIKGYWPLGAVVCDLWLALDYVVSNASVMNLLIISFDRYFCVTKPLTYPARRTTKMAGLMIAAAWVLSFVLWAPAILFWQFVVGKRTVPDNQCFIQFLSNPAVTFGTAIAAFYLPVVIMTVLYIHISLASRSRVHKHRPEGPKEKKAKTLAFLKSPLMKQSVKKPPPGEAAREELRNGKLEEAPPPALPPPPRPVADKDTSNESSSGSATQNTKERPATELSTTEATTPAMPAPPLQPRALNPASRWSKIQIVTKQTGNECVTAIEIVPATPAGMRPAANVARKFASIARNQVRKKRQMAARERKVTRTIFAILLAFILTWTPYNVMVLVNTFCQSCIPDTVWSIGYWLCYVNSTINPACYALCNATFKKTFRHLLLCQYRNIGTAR
Method: as §1, §2, §3, §4, §5

[3] = target: T3, M3 muscarinic receptor (Homo sapiens, UniProt P20309); test: Functional mobilization of intracellular calcium (FLIPR) in CHO cells expressing M3; conditions: for EC50: CHO cells expressing M3, FLIPR calcium; for Emax: CHO, 100% = maximum response obtained with the Carbachol control, read-out: M3 Efficacy
T3 construct: expressed in transfected cells; host or cells: CHO (M3-CHO)
T3 sequence (P20309 whole entry): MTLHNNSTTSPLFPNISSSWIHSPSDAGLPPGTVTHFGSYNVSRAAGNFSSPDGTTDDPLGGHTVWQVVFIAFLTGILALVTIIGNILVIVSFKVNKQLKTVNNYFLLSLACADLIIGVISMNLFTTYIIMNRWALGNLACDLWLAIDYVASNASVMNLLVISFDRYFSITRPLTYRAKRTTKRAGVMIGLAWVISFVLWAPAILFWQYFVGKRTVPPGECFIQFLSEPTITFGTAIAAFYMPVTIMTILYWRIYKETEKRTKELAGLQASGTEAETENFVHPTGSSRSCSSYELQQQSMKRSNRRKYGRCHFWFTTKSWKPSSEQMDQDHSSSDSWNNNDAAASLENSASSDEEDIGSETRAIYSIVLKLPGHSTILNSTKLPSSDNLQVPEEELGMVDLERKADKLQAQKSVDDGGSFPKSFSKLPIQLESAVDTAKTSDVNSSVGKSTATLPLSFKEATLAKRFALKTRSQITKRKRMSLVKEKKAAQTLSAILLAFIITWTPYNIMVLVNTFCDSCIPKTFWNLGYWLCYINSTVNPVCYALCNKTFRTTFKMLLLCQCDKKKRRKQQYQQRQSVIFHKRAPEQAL
Method: as §1, §2, §3, §4, §5

[4] = target: T4, M2 muscarinic receptor (Homo sapiens, UniProt P08172); test: Functional mobilization of intracellular calcium (FLIPR) in CHO cells expressing M2; conditions: for EC50: CHO cells expressing M2, FLIPR calcium; for Emax: CHO, 100% = maximum response obtained with the Carbachol control, read-out: M2 Efficacy
T4 construct: expressed in transfected cells; host or cells: CHO (M2-CHO)
T4 sequence (P08172 1-466): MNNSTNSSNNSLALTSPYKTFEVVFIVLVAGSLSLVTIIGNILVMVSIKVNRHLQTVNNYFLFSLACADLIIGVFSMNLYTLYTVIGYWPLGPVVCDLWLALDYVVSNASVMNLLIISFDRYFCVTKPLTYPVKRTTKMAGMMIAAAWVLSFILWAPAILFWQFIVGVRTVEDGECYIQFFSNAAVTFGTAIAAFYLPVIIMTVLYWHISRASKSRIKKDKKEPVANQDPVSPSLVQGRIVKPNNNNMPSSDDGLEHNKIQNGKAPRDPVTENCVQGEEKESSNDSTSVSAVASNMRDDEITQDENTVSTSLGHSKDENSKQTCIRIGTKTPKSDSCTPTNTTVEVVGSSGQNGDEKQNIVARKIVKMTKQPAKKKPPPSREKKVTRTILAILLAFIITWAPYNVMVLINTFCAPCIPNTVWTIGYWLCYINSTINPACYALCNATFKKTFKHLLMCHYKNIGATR
Method: as §1, §2, §3, §4, §5

Row | Compound | EC50 [1] [µM] | Emax [1] [%] | EC50 [2] [µM] | Emax [2] [%] | EC50 [3] [µM] | Emax [3] [%] | EC50 [4] [µM] | Emax [4] [%]
1 | CC(C)C[C@@H](C(=O)N[C@H]1CCC2(CCN(CCC(C)(C)C)CC2)c2ccccc21)N1CCCC1=O [compound 23] | 2 to 5 | < 25 | < 2 | 25 to 100 | > 5 | < 25 | > 5 | < 25
2 | CCN(C(=O)C1CCC(OC)CC1)[C@H]1CCC2(CCN(CCC(C)(C)C)CC2)c2ccccc21 (stereo partly drawn) [compound 24] | > 5 | < 25 | < 2 | 25 to 100 | > 5 | < 25 | < 2 | 25 to 100
3 | CN1CC(C(=O)N[C@@H]2CCC3(CCN(CCC(C)(C)C)CC3)c3ccccc32)CC1=O (stereo partly drawn) [compound 25] | > 5 | < 25 | < 2 | 25 to 100 | > 5 | < 25 | > 5 | < 25
4 | CCC(=O)C1NCCC1C(=O)N[C@H]1CCC2(CCN(CCC(C)(C)C)CC2)c2cc(F)ccc21 (stereo partly drawn) [compound 26] | < 2 | 25 to 100 | < 2 | 25 to 100 | > 5 | < 25 | > 5 | < 25
5 | CC(C)(C)CCN1CCC2(CC[C@H](NC(=O)C3CCCO3)c3ccc(F)cc32)CC1 (stereo partly drawn) [compound 27] | < 2 | 25 to 100 | < 2 | 25 to 100 | > 5 | < 25 | < 2 | < 25
6 | CC(C)(C)CCN1CCC2(CC[C@H](NC(=O)CC3CCCC3=O)c3ccc(F)cc32)CC1 (stereo partly drawn) [compound 28] | < 2 | 25 to 100 | < 2 | 25 to 100 | > 5 | < 25 | 2 to 5 | < 25
7 | CC(C)(C)CCN1CCC2(CC[C@@H](NC(=O)CCN3CCCC3=O)c3ccc(F)cc32)CC1 [compound 29] | < 2 | 25 to 100 | < 2 | 25 to 100 | > 5 | < 25 | < 2 | 25 to 100
8 | CCN(C(=O)C1CCOC(C)(C)C1)[C@H]1CCC2(CCN(CCC(C)(C)C)CC2)c2ccccc21 (stereo partly drawn) [compound 30] | > 5 | < 25 | 2 to 5 | 25 to 100 | > 5 | < 25 | > 5 | < 25
9 | CC(C)(C)CCN1CCC2(CC[C@H](NC(=O)C3CCCO3)c3ccccc32)CC1 (stereo partly drawn) [compound 31] | < 2 | 25 to 100 | < 2 | 25 to 100 | > 5 | < 25 | < 2 | < 25
10 | CC(=O)N[C@@H]1c2ccccc2C2(CCN(CCC(C)(C)C)CC2)CC1(F)F [compound 32] | < 2 | 25 to 100 | < 2 | 25 to 100 | > 5 | < 25 | < 2 | 25 to 100
11 | CC(=O)NCC(=O)N[C@H]1CCC2(CCN(CCC(C)(C)C)CC2)c2cc(F)ccc21 [compound 33] | < 2 | 25 to 100 | < 2 | 25 to 100 | > 5 | < 25 | < 2 | 25 to 100
12 | CCN(C(=O)C(C)NC(C)=O)[C@H]1CCC2(CCN(CCC(C)(C)C)CC2)c2ccccc21 (stereo partly drawn) [compound 34] | < 2 | 25 to 100 | < 2 | 25 to 100 | > 5 | < 25 | 2 to 5 | < 25
13 | CC(C)NC(=O)C1CCC2(CCN(CCC(C)(C)C)CC2)c2ccccc21 (stereo not drawn) [compound 35] | > 5 | < 25 | < 2 | 25 to 100 | > 5 | < 25 | > 5 | < 25
14 | CC(C)(C)CCN1CCC2(CC[C@H](NC(=O)C3CCN(C(=O)c4ccccc4)CC3)c3ccccc32)CC1 [compound 36] | < 2 | 25 to 100 | < 2 | 25 to 100 | > 5 | < 25 | > 5 | < 25
15 | CC(C)(C)CCN1CCC2(CCCc3ccccc32)CC1 [compound 37] | 2 to 5 | 25 to 100 | < 2 | 25 to 100 | > 5 | < 25 | 2 to 5 | 25 to 100
